Measurements as given in patent US4399274A, “Isolation of non-ionic lipophilic materials on macroreticular polymeric absorbents” (priority 1981, dated 1983).

Assay: Partition of avermectins between aqueous acetone and Duolite ES-863 resin (HPLC of supernatant before and after equilibration)
[1] = 21.4% acetone (vol), 4 ml supernatant, 1 g ES-863 resin, equilibrated for an hour
[2] = 23.1% acetone (vol), 4 ml supernatant, 1 g ES-863 resin, equilibrated for an hour
[3] = 25.0% acetone (vol), 4 ml supernatant, 1 g ES-863 resin, equilibrated for an hour
[4] = 27.3% acetone (vol), 4 ml supernatant, 1 g ES-863 resin, equilibrated for an hour
[5] = 37.5% acetone (vol), 4 ml supernatant, 1 g ES-863 resin, equilibrated for an hour
[6] = 42.9% acetone (vol), 4 ml supernatant, 1 g ES-863 resin, equilibrated for an hour
[7] = 50.0% acetone (vol), 4 ml supernatant, 1 g ES-863 resin, equilibrated for an hour
[8] = 60.0% acetone (vol), 4 ml supernatant, 1 g ES-863 resin, equilibrated for an hour
[9] = 68.0% acetone, ES-863 resin, similar procedures
[10] = 73.3% acetone, ES-863 resin, similar procedures
[11] = 77.1% acetone, ES-863 resin, similar procedures
[12] = 80.0% acetone, ES-863 resin, similar procedures
[13] = 82.2% acetone, ES-863 resin, similar procedures

Description: After standing overnight they were centrifuged and 4 ml of each supernatant was transferred to tubes containing 1 g each of purified ES-863 resin. An aliquot was also taken for HPLC assay.
The samples containing the resin were equilibrated for an hour, then centrifuged. The supernatants were assayed by HPLC. A comparison of the assays before and after equilibration represent the partition between the solvent and the adsorbent.

SMILES | % Remaining in Solution [1] | % Remaining in Solution [2] | % Remaining in Solution [3] | % Remaining in Solution [4] | % Remaining in Solution [5] | % Remaining in Solution [6] | % Remaining in Solution [7] | % Remaining in Solution [8] | % Remaining in Solution [9] | % Remaining in Solution [10] | % Remaining in Solution [11] | % Remaining in Solution [12] | % Remaining in Solution [13]
CCC(C)C1OC2(C=CC1C)CC1CC(CC=C(C)C(OC3CC(OC)C(OC4CC(OC)C(O)C(C)O4)C(C)O3)C(C)C=CC=C3COC4C(OC)C(C)=CC(C(=O)O1)C34O)O2 (stereo not drawn) [A1a] | 4.40% | 6.75% | 7.09% | 8.42% | 3.60% | 4.39% | 3.03% | 2.10% | 5.68% | 19.7% | 36.2% | 51.5% | 136%
COC1CC(OC2C(C)OC(OC3C(C)=CCC4CC(CC5(C=CC(C)C(C(C)C)O5)O4)OC(=O)C4C=C(C)C(OC)C5OCC(=CC=CC3C)C45O)CC2OC)OC(C)C1O (stereo not drawn) [A1b] | 4.56% | 4.85% | 5.63% | 6.42% | 3.18% | 3.13% | 2.42% | 1.69% | 10.6% | 68.1% | 111% | 145% | 79.0%
CCC(C)C1OC2(CC3CC(CC=C(C)C(OC4CC(OC)C(OC5CC(OC)C(O)C(C)O5)C(C)O4)C(C)C=CC=C4COC5C(OC)C(C)=CC(C(=O)O3)C45O)O2)CC(O)C1C (stereo not drawn) [A2a] | 5.36% | 6.54% | 7.86% | 6.99% | 4.19% | 3.76% | 2.12% | 2.72% | 15.2% | 42.1% | 65.7% | 86.7% | 110%
COC1CC(OC2C(C)OC(OC3C(C)=CCC4CC(CC5(CC(O)C(C)C(C(C)C)O5)O4)OC(=O)C4C=C(C)C(OC)C5OCC(=CC=CC3C)C45O)CC2OC)OC(C)C1O (stereo not drawn) [A2b] | 2.75% | 3.89% | 5.38% | 3.73% | 2.70% | 1.71% | 0.57% | 0.3% | 26.8% | 64.8% | 94.4% | 117% | 128%
COC1CC(OC2C(C)OC(OC3C(C)=CCC4CC(CC5(C=CC(C)C(C(C)C)O5)O4)OC(=O)C4C=C(C)C(O)C5OCC(=CC=CC3C)C45O)CC2OC)OC(C)C1O (stereo not drawn) [B1b] | 3.73% | 5.03% | 6.32% | 4.55% | 2.59% | 2.13% | 0.90% | 1.53% | 20.4% | 5.15% | 73.8% | 94.2% | 123%
CCC(C)C1OC2(CC3CC(CC=C(C)C(OC4CC(OC)C(OC5CC(OC)C(O)C(C)O5)C(C)O4)C(C)C=CC=C4COC5C(O)C(C)=CC(C(=O)O3)C45O)O2)CC(O)C1C (stereo not drawn) [B2a] | 5.10% | 6.09% | 7.29% | 5.37% | 3.21% | 2.65% | 1.36% | 4.95% | 27.8% | 60.4% | 82.1% | 99.8% | 165%
COC1CC(OC2C(C)OC(OC3C(C)=CCC4CC(CC5(CC(O)C(C)C(C(C)C)O5)O4)OC(=O)C4C=C(C)C(O)C5OCC(=CC=CC3C)C45O)CC2OC)OC(C)C1O (stereo not drawn) [B2b] | < 2% | 4.80% | 5.08% | 2.34% | < 3% | 3.89% | 4.35% | 33.3% |  |  |  |  | 135%
